From paper PMC12621175, “Scaffold Fusion and SAR Transfer with a Chemical Language Model Generates Novel Liver X Receptor Modulators” (Journal of Medicinal Chemistry, 2025)
“Also recorded” adds a separate entry of the source.

Tests used:
[1] = target: T1, LXRβ (Homo sapiens, UniProt P55055); experiment: Gal4-LXRβ hybrid reporter gene assay; format: cell-based; settings: classification agonist; read-out: LXRb pEC50/pIC50 (converted)
T1 construct: coding for the hinge region, and LBD of the canonical isoform of the respective nuclear receptor; expressed in transfected cells; host or cells: HEK293T
T1 sequence (P55055 222-460 limits assumed): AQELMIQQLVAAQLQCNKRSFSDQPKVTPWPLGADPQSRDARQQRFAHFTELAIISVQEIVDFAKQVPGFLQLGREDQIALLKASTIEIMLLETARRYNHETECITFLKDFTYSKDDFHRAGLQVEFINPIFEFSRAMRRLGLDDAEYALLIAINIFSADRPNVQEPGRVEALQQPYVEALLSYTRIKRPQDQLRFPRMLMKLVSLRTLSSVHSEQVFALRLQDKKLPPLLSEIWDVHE
Experimental: (§1) The LXR-responsive reporter ABCA1-pGL3 was used for the full-length reporter gene assay.
(§2) The day before transfection, HEK293T cells were seeded in 96-well plates (4 × 10^4 cells/well). Before transfection, the medium was changed to Opti-MEM without any supplements. Transient transfection was carried out using Lipofectamine LTX reagent (Invitrogen) according to the manufacturer’s protocol with (a) pFR-Luc (Stratagene), pRL-SV40 (Promega), and the corresponding Gal4-fusion nuclear receptor plasmid or (b) the LXR-responsive reporter ABCA1-pGL3 and pRL-SV40 (Promega). […] Each concentration was tested in duplicate, and each experiment was repeated in at least three biologically independent repeats. […] Luminescence was measured with a Spark 10 M luminometer (Tecan Deutschland GmbH). Normalization of transfection efficiency and cell growth was done by division of firefly luciferase data by renilla luciferase data multiplied by 1000, resulting in relative light units (RLU). Fold activation was obtained by dividing the mean RLU of the tested compound at a respective concentration by the mean RLU of the untreated 0.1% DMSO control. […] Separate control experiments to exclude nonspecific reporter gene activation or VP16-mediated effects were performed following the same procedure in the absence of a nuclear receptor expression plasmid (pFR-Luc, pRL-SV40, and pECE-SV40-Gal4-VP16 only).

[2] = target: T2, LXRα (Homo sapiens, UniProt Q13133); experiment: Gal4-LXRα hybrid reporter gene assay; format: cell-based
T2 construct: coding for the hinge region, and LBD of the canonical isoform of the respective nuclear receptor; expressed in transfected cells; host or cells: HEK293T
T2 sequence (Q13133 209-447 limits assumed): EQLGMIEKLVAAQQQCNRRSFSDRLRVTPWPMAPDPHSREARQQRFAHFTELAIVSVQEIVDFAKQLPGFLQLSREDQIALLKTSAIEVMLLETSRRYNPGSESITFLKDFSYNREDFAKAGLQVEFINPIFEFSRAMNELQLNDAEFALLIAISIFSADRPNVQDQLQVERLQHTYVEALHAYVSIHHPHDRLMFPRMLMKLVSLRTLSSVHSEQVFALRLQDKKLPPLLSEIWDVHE
Experimental: as §1, §2

[3] = tested on: LXR/retinoid X receptor (RXR) heterodimer; experiment: full-length LXR assay (LXR-responsive ABCA1 reporter, endogenous LXR) in HEK293T and HepG2 cells; format: cell-based; settings: 3 μM, vs 0.1% DMSO
Description: Intrigued by the initial data on LXR modulation, we further investigated the mode-of-action of designs 1-3. As the Gal4 hybrid reporter gene assay is artificial and overexpresses LXR, we next examined LXR modulation by 1-3 in a full-length LXR assay (Figure a) based on the endogenous expression of the LXR/retinoid X receptor (RXR) heterodimer (Figure S2). Upon activation, LXR binds to response elements within the ATP-binding cassette transporter A1 (ABCA1, an LXR target gene) promoter of the reporter. […] The designs were next checked for antiproliferative effects that may compromise further in vitro characterization. […] Therefore, and due to the weak efficacy of 2, we focused further biological characterization on 1 and 3.
For the hybrid reporter gene assays, the previously reported Gal4-fusion receptor plasmids pFA-CMV-hRORα-LBD, pFA-CMV-hRORβ-LBD, pFA-CMV-hRORγ-LBD, pFA-CMV-hLXRα-LBD, pFA-CMV-hLXRβ-LBD, pFA-CMV-hFXR-LBD, pFA-CMV-hPXR-LBD, and pFA-CMV-hRXRα-LBD, coding for the hinge region, and LBD of the canonical isoform of the respective nuclear receptor were used. pFR-Luc (Stratagene) was used as the reporter plasmid, and pRL-SV40 (Promega) was used in all assays for the normalization of transfection efficiency and cell growth. pECE-SV40-Gal4-VP16 was a gift from Lea Sistonen (Addgene plasmid #71728). The LXR-responsive reporter ABCA1-pGL3 was used for the full-length reporter gene assay.
The day before transfection, HEK293T cells were seeded in 96-well plates (4 × 10^4 cells/well). Before transfection, the medium was changed to Opti-MEM without any supplements. […] Luminescence was measured with a Spark 10 M luminometer (Tecan Deutschland GmbH). […] EC50/IC50 values and the standard errors thereof were calculated with the mean fold activation values by OriginPro, Version 2025 (OriginLab Corporation, Northampton, MA, USA), fitting a dose–response curve with a variable Hill slope (Levenberg–Marquardt algorithm). […]

[4] = tested on: HepG2 cells; experiment: resazurin-based proliferation assay, HepG2; format: cell-based; settings: 10 μM
Experimental: (§3) HepG2 or HEK293T cells were seeded in 96-well plates (4 × 10^4 cells per well). […] After 4, 14, and 24 h, the medium was aspirated, and the cells were incubated with 100 μM resazurin solution in Opti-MEM (prepared from a 0.15 mg/mL resazurin stock in DPBS) for 60 min. The metabolic activity was assessed by conversion of resazurin to resorufin, which was quantified by measuring absorbance at 570 nm and a reference wavelength of 600 nm. The cell count was calculated from a calibration curve with 0–10^5 cells per well in steps of 2 × 10^4.

[5] = tested on: HEK293T cells; experiment: resazurin-based proliferation assay, HEK293T; format: cell-based; settings: 10 μM
Experimental: as §3

[6] = tested on: ABCA1; experiment: qPCR of LXR-regulated mRNA expression in HepG2: ABCA1; format: cell-based, human; settings: 1 μM, HepG2, 24 h
[7] = tested on: SREBP1c; experiment: qPCR of LXR-regulated mRNA expression in HepG2: SREBP1c; format: cell-based, human; settings: 1 μM, HepG2, 24 h
[8] = tested on: APOE; experiment: qPCR of LXR-regulated mRNA expression in HepG2: APOE; format: cell-based, human; settings: 1 μM, HepG2, 24 h

Row | EC50 [1] [µM] | classification ([2]; applies to LXRa and LXRb) | LXR modulation in Gal4 hybrid reporter gene assays (mode of action) ([2]; both LXR subtypes (LXRα and LXRβ)) | EC50 ([2]; classification agonist, read-out: LXRa pEC50/pIC50 (converted)) [µM] | Structure (SMILES) | LXR modulation in LXR-responsive ABCA1 reporter gene assay [3] | antiproliferative effect [4] | antiproliferative effect [5] | ABCA1 mRNA expression [6] | ABCA1 mRNA expression ([6]; listed as T090) | SREBP1c mRNA expression [7] | SREBP1c mRNA expression ([7]; listed as T090) | APOE mRNA expression [8] | APOE mRNA expression ([8]; listed as T090)
1 | > 3.16 | agonist | partial agonists | > 3.16 | CS(=O)(=O)c1cccc(N2CCN(c3ccc(Cl)c(C(F)(F)F)c3)CC2)c1 [Compound 2, 1-(4-Chloro-3-[trifluoromethyl]phenyl)-4-(3-[methylsulfonyl]phenyl)piperazine] | partial LXR agonists; also recorded: partial LXR agonism | did not inhibit the proliferation | did not inhibit the proliferation; also recorded: slightly reduced growth rate |  |  |  |  |  | 
2 |  |  |  |  | O=S(=O)(c1ccccc1)N(CC(F)(F)F)c1ccc(C(O)(C(F)(F)F)C(F)(F)F)cc1 [Compound T0901317, reference compound] |  |  |  | induced mRNA expression | induced | induced mRNA expression | induced | induced mRNA expression | induced
